Data on five molecules can be found in patent publication US20090124652A1, “Polymorphs of 1-(2-Methylpropyl)-1H-Imidazo[4,5-C][1,5]Naphthyridin-4-Amine Ethane-Sulfonate” (Takeda Pharmaceutical Company Limited, priority 2004, published 2009).

Data set [1] is described as follows: Hygroscopicity / water sorption of the crystalline form. The data set is classed as physicochemical. Particulars: experimentally determined. As for the experimental part:
The automated analysis of water sorption was performed using a VTI Symmetrical Gravimetric Analyzer Model 100 (SGA-100) operated in Step-Isotherm mode. The sample was exposed to a cycle of relative humidity (RH) conditions at 25° C. The relative humidity was cycled from 5% to 95% and back to 5% in increments of 5%, and the weight of the sample at each stage was recorded after equilibration (less than 0.01% weight change within 5 minutes). The percent weight change of the sample as a function of the relative humidity was plotted to yield the adsorption/desorption isotherm.

Data set [2] in a line: Relative stability of the crystalline form. The data set is classed as physicochemical.
In the next data set the test system is cytokine biosynthesis. Conditions: U.S. Pat. No. 6,194,425; cited from earlier work.
Data set [3] has as its system Peripheral blood mononuclear cells (PBMC). Briefly: Cytokine induction in human cells (in vitro human blood cell system). Conditions: generally tested at 30-0.014 μM, incubated 18 to 24 hours, ELISA. The data set is classed as cell-based. An excerpt: An in vitro human blood cell system is used to assess cytokine induction. Activity is based on the measurement of interferon (α) and tumor necrosis factor (α) (IFN and TNF, respectively) secreted into culture media as described by Testerman et al. in “Cytokine Induction by the Immunomodulators Imiquimod and S-27609,” Journal of Leukocyte Biology, 58, 365-372 (September, 1995).
Whole blood from healthy human donors is collected by venipuncture into EDTA vacutainer tubes. Peripheral blood mononuclear cells (PBMC) are separated from whole blood by density gradient centrifugation using HISTOPAQUE-1077. Blood is diluted 1:1 with Dulbecco's Phosphate Buffered Saline (DPBS) or Hank's Balanced Salts Solution (HBSS). […]
Following incubation the plates are centrifuged for 10 minutes at 1000 rpm (approximately 200×g) at 4° C. […] The samples are analyzed for interferon (α) by ELISA and for tumor necrosis factor (α) by ELISA or IGEN Assay.
Interferon (α) concentration is determined by ELISA using a Human Multi-Species kit from PBL Biomedical Laboratories, New Brunswick, N.J. Results are expressed in pg/mL.
Tumor necrosis factor (α) (TNF) concentration is determined using ELISA kits available from Biosource International, Camarillo, Calif. Alternately, the TNF concentration can be determined by ORIGEN M-Series Immunoassay and read on an IGEN M-8 analyzer from IGEN International, Gaithersburg, Md. […]
In general terms: ELISA stands for enzyme-linked immunosorbent assay.

Several values for one entry are separate records, joined by “and”; a condition that tells them apart may be missing. Equal values may be shown once. Entries after “also recorded” stand apart in the source; their conditions may differ.

Usually melting point stands for the temperature, or range, at which the solid turns liquid. For the molecule `CC(C)Cn1cnc2c(N)nc3cccnc3c21.CCS(=O)(=O)O.O` (hydrate or solvate), the melting point was 220 to 221 °C and 221.5 to 223.4 °C.
In the case of `CC(C)Cn1cnc2c(N)nc3cccnc3c21.CCS(=O)(=O)O` [Form B, 1-(2-methylpropyl)-1H-imidazo[4,5-c][1,5]naphthyridin-4-amine ethanesulfonate], the hygroscopicity result in data set [1] is reported as “hygroscopic”.
Take `CC(C)Cn1cnc2c(N)nc3cccnc3c21.CCS(=O)(=O)O.O` [Form C, 1-(2-methylpropyl)-1H-imidazo[4,5-c][1,5]naphthyridin-4-amine ethanesulfonate monohydrate]: the “stability of crystalline form” value in data set [2] is on record as “relatively stable”.
Consider `CC(C)Cn1cnc2c(N)nc3cccnc3c21` [1-(2-methylpropyl)-1H-imidazo[4,5-c][1,5]naphthyridin-4-amine], for which, in the data set with cytokine biosynthesis, the “ability to induce cytokine biosynthesis” value is given as “induce cytokine biosynthesis”.
As for `CC(C)Cn1cnc2c(N)nc3cccnc3c21.CCS(=O)(=O)O` [1-(2-methylpropyl)-1H-imidazo[4,5-c][1,5]naphthyridin-4-amine ethanesulfonate], in data set [3], the “induction of production of interferon α and/or tumor necrosis factor α” value is given as “induce the production of certain cytokines; also recorded: inducing the production of interferon α and/or tumor necrosis factor α”.
